The target of this test is T1, human PAH with the R408W mutation (Homo sapiens, UniProt P00439, R408W).
T1 construct: expressed in transfected cells
T1 sequence (P00439 1-452 R408W): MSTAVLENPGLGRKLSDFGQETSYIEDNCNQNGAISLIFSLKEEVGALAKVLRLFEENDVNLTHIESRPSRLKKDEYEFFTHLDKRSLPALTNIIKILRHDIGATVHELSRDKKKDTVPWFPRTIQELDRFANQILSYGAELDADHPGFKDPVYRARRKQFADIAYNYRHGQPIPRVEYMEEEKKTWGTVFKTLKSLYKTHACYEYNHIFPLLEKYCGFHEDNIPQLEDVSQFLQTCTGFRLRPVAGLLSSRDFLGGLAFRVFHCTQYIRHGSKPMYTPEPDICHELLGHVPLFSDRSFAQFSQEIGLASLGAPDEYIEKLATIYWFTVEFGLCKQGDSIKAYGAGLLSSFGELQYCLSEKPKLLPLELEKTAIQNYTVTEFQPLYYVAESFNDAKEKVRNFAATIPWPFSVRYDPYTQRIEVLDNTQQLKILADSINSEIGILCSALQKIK
Kind of test: Cell Based Phenylalanine Flux Assay.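 Note: after compound treatment, cells received sepiapterin plus isotope-labelled Phenylalanine for 4 hours, then labelled Tyrosine in the medium was quantified, 10-point 2-fold dilution series run in duplicate.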 Conditions: A375 cells expressing human R408W PAH; 24 hrs compound incubation; 13C-Tyrosine by LC-MS; average where tested multiple times; read-out: AC50.
Protocol: Compounds were resuspended in DMSO, and 2-fold serial dilutions were performed to generate a 10-point dose curve. Compounds were added to plated cells in a total volume of 100 µl, and a final DMSO concentration of 0.5%. Each compound was tested in duplicate. Following compound addition, cells were placed in a 5% CO2, 37° C. tissue culture incubator for 24 hrs. After the incubation period, 20 µM sepiapterin and 800 µM 13C9,15N-Phenylalanine were added. After 4 hours, cell media was removed. An aliquot of 10 µl of cell media was combined with 200 µl of extraction buffer (80% acetonitrile/20% H2O) for each well. Determination of ^13C-Tyrosine concentration was assessed by liquid chromatography mass spectrometry.
Where a compound was tested multiple times, the average value of the tests is reported.
In the case of `Cc1cccn2nc([C@@H]3c4nc[nH]c4CCN3C(=O)c3oc(C(C)(C)O)nc3C(F)F)cc12` [Example 736, (S)-(4-(difluoromethyl)-2-(2-hydroxypropan-2-yl)oxazol-5-yl)(4-(4-methylpyrazolo[1,5-a]pyridin-2-yl)-6,7-dihydro-1H-imidazo[4,5-c]pyridin-5(4H)-yl)methanone], the AC50 is below 500 nM.

As to `Cc1cccn2nc([C@H]3c4nc[nH]c4CCN3C(=O)c3oc(C(C)(C)O)nc3C(F)F)cc12` [Example 737, (R)-(4-(difluoromethyl)-2-(2-hydroxypropan-2-yl)oxazol-5-yl)(4-(4-methylpyrazolo[1,5-a]pyridin-2-yl)-6,7-dihydro-1H-imidazo[4,5-c]pyridin-5(4H)-yl)methanone], the concentration at half-maximal activity (AC50) was in the range of 1000 to 5000 nM. Take `Cc1cccn2nc([C@@H]3c4nc[nH]c4CCN3C(=O)c3oc([C@@H](C)O)nc3C(F)F)cc12` [Example 738, (4-(difluoromethyl)-2-((R)-1-hydroxyethyl)oxazol-5-yl)((S)-4-(4-methylpyrazolo[1,5-a]pyridin-2-yl)-6,7-dihydro-1H-imidazo[4,5-c]pyridin-5(4H)-yl)methanone]: the AC50 is below 500 nM. In the case of `Cc1cccn2nc([C@H]3c4nc[nH]c4CCN3C(=O)c3oc([C@@H](C)O)nc3C(F)F)cc12` [Example 739, (4-(difluoromethyl)-2-((R)-1-hydroxyethyl)oxazol-5-yl)((R)-4-(4-methylpyrazolo[1,5-a]pyridin-2-yl)-6,7-dihydro-1H-imidazo[4,5-c]pyridin-5(4H)-yl)methanone] it was 1000 to 5000 nM; in that of `Cc1cccn2nc([C@H]3c4nc[nH]c4CCN3C(=O)c3nnc(-c4ccccn4)o3)cc12` [Example 740, (R)-(4-(4-methylpyrazolo[1,5-a]pyridin-2-yl)-6,7-dihydro-1H-imidazo[4,5-c]pyridin-5(4H)-yl)(5-(pyridin-2-yl)-1,3,4-oxadiazol-2-yl)methanone], above 5000 nM. In the case of `Cc1cccn2nc([C@@H]3c4nc[nH]c4CCN3C(=O)c3nnc(-c4ccccn4)o3)cc12` [Example 741, (S)-(4-(4-methylpyrazolo[1,5-a]pyridin-2-yl)-6,7-dihydro-1H-imidazo[4,5-c]pyridin-5(4H)-yl)(5-(pyridin-2-yl)-1,3,4-oxadiazol-2-yl)methanone], the AC50 was below 500 nM. For `Cc1cccn2nc([C@@H]3c4nc[nH]c4CCN3C(=O)c3nnc(-c4ccn(C)n4)o3)cc12` [Example 743, (S)-(5-(1-methyl-1H-pyrazol-3-yl)-1,3,4-oxadiazol-2-yl)(4-(4-methylpyrazolo[1,5-a]pyridin-2-yl)-6,7-dihydro-1H-imidazo[4,5-c]pyridin-5(4H)-yl)methanone] the value was below 500 nM; for `CC(C)(O)c1nc(C(F)(F)F)c(C(=O)N2CCc3[nH]cnc3[C@@H]2c2cc3c(F)cccn3n2)o1` [Example 745, (R)-(4-(4-fluoropyrazolo[1,5-a]pyridin-2-yl)-6,7-dihydro-1H-imidazo[4,5-c]pyridin-5(4H)-yl)(2-(2-hydroxypropan-2-yl)-4-(trifluoromethyl)oxazol-5-yl)methanone], 1000 to 5000 nM; for `CC(C)(O)c1nc(Br)c(C(=O)N2CCc3[nH]cnc3[C@H]2c2cc3c(F)cccn3n2)o1` [Example 746, (S)-(4-bromo-2-(2-hydroxypropan-2-yl)oxazol-5-yl)(4-(4-fluoropyrazolo[1,5-a]pyridin-2-yl)-6,7-dihydro-1H-imidazo[4,5-c]pyridin-5(4H)-yl)methanone], below 500 nM. For `CC(C)(O)c1nc(Br)c(C(=O)N2CCc3[nH]cnc3[C@@H]2c2cc3c(F)cccn3n2)o1` [Example 747, (R)-(4-bromo-2-(2-hydroxypropan-2-yl)oxazol-5-yl)(4-(4-fluoropyrazolo[1,5-a]pyridin-2-yl)-6,7-dihydro-1H-imidazo[4,5-c]pyridin-5(4H)-yl)methanone] the value was above 5000 nM; for `Cc1cccn2nc([C@@H]3c4nc[nH]c4CCN3C(=O)c3nnc(-c4cnn(C)c4)o3)cc12` [Example 748, (S)-(5-(1-methyl-1H-pyrazol-4-yl)-1,3,4-oxadiazol-2-yl)(4-(4-methylpyrazolo[1,5-a]pyridin-2-yl)-6,7-dihydro-1H-imidazo[4,5-c]pyridin-5(4H)-yl)methanone], below 500 nM; for `Cc1cccn2nc([C@H]3c4nc[nH]c4CCN3C(=O)c3nnc(-c4cnn(C)c4)o3)cc12` [Example 749, (R)-(5-(1-methyl-1H-pyrazol-4-yl)-1,3,4-oxadiazol-2-yl)(4-(4-methylpyrazolo[1,5-a]pyridin-2-yl)-6,7-dihydro-1H-imidazo[4,5-c]pyridin-5(4H)-yl)methanone], above 5000 nM. Turning to `Cc1nc([C@H](C)O)oc1C(=O)N1CCc2[nH]cnc2[C@H]1c1cc2c(C)cccn2n1` [Example 750, (2-((S)-1-hydroxyethyl)-4-methyloxazol-5-yl)((S)-4-(4-methylpyrazolo[1,5-a]pyridin-2-yl)-6,7-dihydro-1H-imidazo[4,5-c]pyridin-5(4H)-yl)methanone], the half-maximal activity concentration (AC50) is below 500 nM. In the case of `Cc1nc([C@@H](C)O)oc1C(=O)N1CCc2[nH]cnc2[C@H]1c1cc2c(C)cccn2n1` [Example 752, (2-((R)-1-hydroxyethyl)-4-methyloxazol-5-yl)((S)-4-(4-methylpyrazolo[1,5-a]pyridin-2-yl)-6,7-dihydro-1H-imidazo[4,5-c]pyridin-5(4H)-yl)methanone] it was below 500 nM. For `Cc1nc([C@@H](C)O)oc1C(=O)N1CCc2[nH]cnc2[C@@H]1c1cc2c(C)cccn2n1` [Example 753, (2-((R)-1-hydroxyethyl)-4-methyloxazol-5-yl)((R)-4-(4-methylpyrazolo[1,5-a]pyridin-2-yl)-6,7-dihydro-1H-imidazo[4,5-c]pyridin-5(4H)-yl)methanone] the value was 1000 to 5000 nM; for `Cc1nc(C(C)(C)O)oc1C(=O)N1CCc2[nH]cnc2[C@H]1c1cc2c(C)cccn2n1` [Example 754, (S)-(2-(2-hydroxypropan-2-yl)-4-methyloxazol-5-yl)(4-(4-methylpyrazolo[1,5-a]pyridin-2-yl)-6,7-dihydro-1H-imidazo[4,5-c]pyridin-5(4H)-yl)methanone], below 500 nM; for `CC(C)(O)c1nc(Cl)c(C(=O)N2CCc3[nH]cnc3[C@H]2c2cc3c(F)cccn3n2)o1` [Example 756, (S)-(4-chloro-2-(2-hydroxypropan-2-yl)oxazol-5-yl)(4-(4-fluoropyrazolo[1,5-a]pyridin-2-yl)-6,7-dihydro-1H-imidazo[4,5-c]pyridin-5(4H)-yl)methanone], below 500 nM. For `CC(C)(O)c1nc(Cl)c(C(=O)N2CCc3[nH]cnc3[C@@H]2c2cc3c(F)cccn3n2)o1` [Example 757, (R)-(4-chloro-2-(2-hydroxypropan-2-yl)oxazol-5-yl)(4-(4-fluoropyrazolo[1,5-a]pyridin-2-yl)-6,7-dihydro-1H-imidazo[4,5-c]pyridin-5(4H)-yl)methanone] the value was 1000 to 5000 nM; for `O=C(c1ocnc1C(F)F)N1CCc2[nH]cnc2[C@H]1c1cc2c(F)cccn2n1` [Example 758, (S)-(4-(difluoromethyl)oxazol-5-yl)(4-(4-fluoropyrazolo[1,5-a]pyridin-2-yl)-6,7-dihydro-1H-imidazo[4,5-c]pyridin-5(4H)-yl)methanone], below 500 nM.

In the case of `O=C(c1ocnc1C(F)F)N1CCc2[nH]cnc2[C@@H]1c1cc2c(F)cccn2n1` [Example 759, (R)-(4-(difluoromethyl)oxazol-5-yl)(4-(4-fluoropyrazolo[1,5-a]pyridin-2-yl)-6,7-dihydro-1H-imidazo[4,5-c]pyridin-5(4H)-yl)methanone], the concentration at half-maximal activity (AC50) was in the range of 1000 to 5000 nM. In the case of `O=C(c1cnco1)N1CCc2[nH]cnc2[C@H]1c1cc2c(F)cccn2n1` [Example 760, (S)-(4-(4-fluoropyrazolo[1,5-a]pyridin-2-yl)-6,7-dihydro-1H-imidazo[4,5-c]pyridin-5(4H)-yl)(oxazol-5-yl)methanone] it was 1000 to 5000 nM; in that of `O=C(c1cnco1)N1CCc2[nH]cnc2[C@@H]1c1cc2c(F)cccn2n1` [Example 761, (R)-(4-(4-fluoropyrazolo[1,5-a]pyridin-2-yl)-6,7-dihydro-1H-imidazo[4,5-c]pyridin-5(4H)-yl)(oxazol-5-yl)methanone], 1000 to 5000 nM. As for `Cn1nc(Cl)nc1C(=O)N1CCc2[nH]cnc2[C@H]1c1cc2c(F)cccn2n1` [Example 762, (S)-(3-chloro-1-methyl-1H-1,2,4-triazol-5-yl)(4-(4-fluoropyrazolo[1,5-a]pyridin-2-yl)-6,7-dihydro-1H-imidazo[4,5-c]pyridin-5(4H)-yl)methanone], the AC50 is below 500 nM. In the case of `Cn1nc(Cl)nc1C(=O)N1CCc2[nH]cnc2[C@@H]1c1cc2c(F)cccn2n1` [Example 763, (R)-(3-chloro-1-methyl-1H-1,2,4-triazol-5-yl)(4-(4-fluoropyrazolo[1,5-a]pyridin-2-yl)-6,7-dihydro-1H-imidazo[4,5-c]pyridin-5(4H)-yl)methanone] it was 1000 to 5000 nM; in that of `Cn1nc(C(F)F)nc1C(=O)N1CCc2[nH]cnc2[C@H]1c1cc2c(F)cccn2n1` [Example 764, (S)-(3-(difluoromethyl)-1-methyl-1H-1,2,4-triazol-5-yl)(4-(4-fluoropyrazolo[1,5-a]pyridin-2-yl)-6,7-dihydro-1H-imidazo[4,5-c]pyridin-5(4H)-yl)methanone], 500 to 1000 nM.

In general, AC50 refers to the concentration giving half of the maximal activity seen.

The record behind these values is patent US20230365592A1 (Agios Pharmaceuticals, Inc., priority 2022, published 2023).
